Values joined by “and” are separate entries in the source; they are usually repeats but may differ in a detail not shown here. Identical values can stand only once.
Key:
Format in all cases: cell-based, human
[1] = system: p16 and p21 mRNA in IMR90 cells at passage 27; assay: p16 and p21 mRNA expression by RT-qPCR, replicative senescence
Procedure: (§1) Total RNA was isolated using RNAeasy kit (Quiagen). cDNA was generated with reverse transcriptase iScript (Bio-Rad). RT-qPCR was performed using SYBR Select Master Mix (Applied Biosystems) in OneStepPlus detection system (Applied Biosystems). Oligos for amplification were: NOXA Fw-[…] and Rv-[…]; b-ACTIN Fw-[…] and Rv-[…]; IL1a Fw-[…] and Rv- […]; IL1b Fw-[…] and Rv- […]; IL8 Fw-[…] and Rv-[…]; p16 Fw-CGGTCGGAGGCCGATCCAG and Rv- […]; p21Fw-[…] and Rv- […].

[2] = system: IMR90 cells at passage 13 (control); settings: for Mean (cell survival, Tukey test details): FIG 4C, Young (control) cells, mean of n=12 as fraction of Young DMSO = 1
Description: IMR90 (CCL-186) human foetal lung fibroblasts and A549 (CCL-185) human lung adenocarcinoma cells were obtained from the American Type Culture Collection (ATCC, Manassas, VA). The cell lines were confirmed to be mycoplasma negative (Lonza MycoAlert, cat #LT07-118). IMR90 ER:RAS is a derivative of IMR90 cells expressing a switchable version of oncogenic H-Ras[84]. IMR90 ER:RAS and A549 cells were maintained in Dulbecco’s Modified Eagle Medium (DMEM, ThermoFisher) supplemented with foetal bovine serum (10%), L-glutamine (2 mM, ThermoFisher), and antibiotic-antimycotic solution (1%, ThermoFisher) and incubated under standard tissue culture conditions (37 °C and 5% CO2). For induction of the senescent phenotype, IMR90-ER:RAS cells were cultured in hydroxytamoxifen (4-OHT) (Sigma) added media at 100 nM final concentration. IMR90 were kept in culture for over 27 passages for replicative senescence. Cells were tested for mycoplasma on a regular basis.
Equal numbers of control and senescent cells were plated at high density on multiwell plates just before senolytic treatment addition. After treatment, cells were fixed on 0.5% glutaraldehyde (Sigma) and then dried at RT overnight. Then, wells were stained with crystal violet solution for 3 h, washed and dried. Once they were completely dry, the plates were scanned for records. Quantification was performed extracting the staining with 1% acetic acid and measuring the final solution by absorbance at 595 nm.

control A549 cells = assay: Cell survival assay using crystal violet staining, TIS, control cells; settings: fraction of Control DMSO = 1, n 15
[3] = system: IL1α, IL1β and IL8 mRNA in IMR90 ER:RAS cells; assay: IL1α, IL1β and IL8 mRNA expression by RT-qPCR, OIS
Procedure: as §1

[4] = system: p16 and p21 mRNA in IMR90 ER:RAS cells; assay: p16 and p21 mRNA expression by RT-qPCR, OIS
Procedure: as §1

[5] = system: IL1α, IL1β and IL8 mRNA in IMR90 cells at passage 27; assay: IL1α, IL1β and IL8 mRNA expression by RT-qPCR, replicative senescence; settings: Replicative senescence cells treated with Oleandrin; relative to Replicative senescence DMSO = 1; individual replicates (Sup Fig 9M)
Procedure: as §1

[6] = Replicative senescence, Replicative senescence DMSO = 1, single replicates (SUP FIG 9K)
[7] = ER:RAS cells treated with Oleandrin, relative to ER:RAS DMSO = 1, individual replicates (Sup Fig 9L)
[8] = ER:RAS cells, ER:RAS DMSO = 1, single replicates (SUP FIG 9J)

Question: For CO[C@H]1C[C@H](O[C@H]2CC[C@@]3(C)[C@H](CC[C@@H]4[C@@H]3CC[C@]3(C)[C@@H](C5=CC(=O)OC5)[C@@H](OC(C)=O)C[C@]43O)C2)O[C@@H](C)[C@@H]1O [Oleandrin, oleandrin], which “p16 mRNA expression” value [1, 6] is on record?
Answer: The value was 0.71 and 0.46 and 0.42.

Question: And the “p21 mRNA expression” value [1, 6]?
Answer: Its value is 0.65 and 0.25 and 0.44.

Question: What about the “mRNA expression of the senescence markers p16 and p21 in surviving cells, in words” value ([1]; replicative senescence, 10 nM, three days) of the same compound?
Answer: The value was “reduced”.

Question: What about the “Mean (cell survival, Tukey test details)” value [2] of the same compound?
Answer: Its value is 0.8637.

Question: What about the “cellular density in non-senescent control cultures, in words” value ([2]; IMR90 control, 10 nM, 72 h) of the same compound?
Answer: The value was “unchanged”.

Question: What about the “Cell survival, mean (Test details, Mean 2)” value (control A549 cells) of the same compound?
Answer: The value was 1.13.

Question: And the “Il1a mRNA expression” value [3, 7]?
Answer: Its value is 0.753 and 0.593 and 0.059 and 0.346.

Question: What about the “Il1b mRNA expression” value [3, 7] of the same compound?
Answer: Its value is 0.833 and 0.618 and 0.476 and 0.758 and 0.763 and 0.829.

Question: What about the “Il8 mRNA expression” value [3, 7] of the same compound?
Answer: Its value is 0.635 and 0.462 and 0.310 and 0.125 and 0.299.

Question: What about the “expression of proinflammatory cytokines IL1α, IL1β and IL8 mRNA in surviving cells, in words” value ([3]; OIS, 10 nM, three days) of the same compound?
Answer: Its value is “reduced expression”.

Question: And the “p16 mRNA expression” value [4, 8]?
Answer: Its value is 0.68 and 0.69 and 0.24 and 0.46.

Question: What about the “p21 mRNA expression” value [4, 8] of the same compound?
Answer: Its value is 0.34 and 0.51 and 0.72 and 0.48.

Question: What about the “mRNA expression of the senescence markers p16 and p21 in surviving cells, in words” value ([4]; OIS, 10 nM, three days) of the same compound?
Answer: The value was “reduced”.

Question: What about the “Il1a mRNA expression” value [5] of the same compound?
Answer: The value was 0.137 and 0.086.

Question: And the “Il1b mRNA expression” value [5]?
Answer: The value was 0.212 and 0.341 and 0.688 and 0.490.

Question: And the “Il8 mRNA expression” value [5]?
Answer: The value was 0.310 and 0.732 and 0.719.

Question: With CO[C@H]1C[C@H](O[C@H]2CC[C@]3(C)[C@H]4CC[C@]5(C)[C@@H](C6=CC(=O)OC6)CC[C@]5(O)[C@@H]4CC[C@]3(O)C2)O[C@H](C)[C@H]1O[C@@H]1O[C@H](CO)[C@@H](O)[C@H](O)[C@H]1O [Periplocin, periplocin] as the compound, how does the “Mean (cell survival, Tukey test details)” value [2] read?
Answer: Its value is 0.8921.
